Measurements published in publication PMC6166781 (Nature structural & molecular biology, 2017).

How the values were obtained:
α5TMD [1] = target: T1, α5TMD (Homo sapiens, UniProt P28472+P31644, DEL351-357/DEL363-425/E358R/G348Q/K256N/R347S/W349P); assay: Whole-cell patch-clamp of α5TMD in transfected HEK-293T cells; format: cell-based
T1 sequence (P28472+P31644 with tags, fused parts or gaps P31644:K256N/P31644:R347S/P31644:G348Q/P31644:W349P/P31644:DEL351-357/P31644:E358R/P31644:DEL363-425): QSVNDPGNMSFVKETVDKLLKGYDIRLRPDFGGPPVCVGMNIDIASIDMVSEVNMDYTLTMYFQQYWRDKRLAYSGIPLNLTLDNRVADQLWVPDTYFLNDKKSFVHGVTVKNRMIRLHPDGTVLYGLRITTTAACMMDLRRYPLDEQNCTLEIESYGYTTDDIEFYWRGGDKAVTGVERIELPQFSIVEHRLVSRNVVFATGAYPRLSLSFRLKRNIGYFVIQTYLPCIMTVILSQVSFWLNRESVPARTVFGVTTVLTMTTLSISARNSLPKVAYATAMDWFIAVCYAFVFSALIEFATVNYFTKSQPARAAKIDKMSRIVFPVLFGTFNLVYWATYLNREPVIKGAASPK

α5TMD T287K T309A = target: T2, α5TMD T287K T309A (Homo sapiens, UniProt P28472, A271S/A273P/A277V/D270E/DELINS289-473LSISARNSLPKVAYAKAMDWFIAVCYAFVFSALIEFAAVNYFTKSQPARAAKIDKMSRIVFPVLFGTFNLVYWATYLNREPVIKGAASPK/I247V/I257T/I267L/I280V/L248I/L256M/L278F/M252L/S254C/S272V/T258V/V276T/W262Q/Y269R); format: cell-based
T2 sequence (P28472 with tags, fused parts or gaps I247V/L248I/M252L/S254C/L256M/I257T/T258V/W262Q/I267L/Y269R/D270E/A271S/S272V/A273P/V276T/A277V/L278F/I280V): T1 sequence (P28472+P31644 with tags, fused parts or gaps P31644:K256N/P31644:R347S/P31644:G348Q/P31644:W349P/P31644:DEL351-357/P31644:E358R/P31644:DEL363-425) with T279K, T301A

α5TMD T287K Q245L = target: T3, α5TMD T287K Q245L (Homo sapiens, UniProt P28472, A271S/A273P/A277V/D270E/DELINS289-473[…]/I247V/I257T/I267L/I280V/L248I/L256M/L278F/M252L/S254C/S272V/T258V/V276T/W262L/Y269R); format: cell-based; conditions: leucine substitution of M1 Gln245
T3 sequence (P28472 with tags, fused parts or gaps I247V/L248I/M252L/S254C/L256M/I257T/T258V/W262L/I267L/Y269R/D270E/A271S/S272V/A273P/V276T/A277V/L278F/I280V): T1 sequence (P28472+P31644 with tags, fused parts or gaps P31644:K256N/P31644:R347S/P31644:G348Q/P31644:W349P/P31644:DEL351-357/P31644:E358R/P31644:DEL363-425) with Q237L, T279K

α5TMD T287K W249L = target: T4, α5TMD T287K W249L (Homo sapiens, UniProt P28472, A271S/A273P/A277V/D270E/DELINS289-473LSISARNSLPKVAYAKAMDWFIAVCYAFVFSALIEFATVNYFTKSQPARAAKIDKMSRIVFPVLFGTFNLVYWATYLNREPVIKGAASPK/I247V/I257T/I267L/I280V/L248I/L256M/L278F/M252L/S254C/S272V/T258V/V276T/W262Q/W266L/Y269R); format: cell-based
T4 sequence (P28472 with tags, fused parts or gaps I247V/L248I/M252L/S254C/L256M/I257T/T258V/W262Q/W266L/I267L/Y269R/D270E/A271S/S272V/A273P/V276T/A277V/L278F/I280V): T1 sequence (P28472+P31644 with tags, fused parts or gaps P31644:K256N/P31644:R347S/P31644:G348Q/P31644:W349P/P31644:DEL351-357/P31644:E358R/P31644:DEL363-425) with W241L, T279K

α1β3γ2 GABAAR = α1β3γ2 GABAAR (Homo sapiens, UniProt P14867+P28472); format: cell-based
α1β3L297Aγ2 GABAAR = α1β3L297Aγ2 GABAAR (Homo sapiens, UniProt P14867+P28472, L322A); format: cell-based; conditions: for loss of sensitivity to potentiation versus wild type: L297A vs WT
α5TMD [2] = target: T1, α5TMD; assay: Thermostability binding experiment
α5TMD Q245W = target: T5, α5TMD Q245W (Homo sapiens, UniProt P28472, A271S/A273P/A277V/D270E/DELINS289-473LSISARNSLPKVAYATAMDWFIAVCYAFVFSALIEFATVNYFTKSQPARAAKIDKMSRIVFPVLFGTFNLVYWATYLNREPVIKGAASPK/I247V/I257T/I267L/I280V/L248I/L256M/L278F/M252L/S254C/S272V/T258V/V276T/Y269R); assay: Thermostability binding experiment
T5 sequence (P28472 with tags, fused parts or gaps I247V/L248I/M252L/S254C/L256M/I257T/T258V/I267L/Y269R/D270E/A271S/S272V/A273P/V276T/A277V/L278F/I280V): T1 sequence (P28472+P31644 with tags, fused parts or gaps P31644:K256N/P31644:R347S/P31644:G348Q/P31644:W349P/P31644:DEL351-357/P31644:E358R/P31644:DEL363-425) with Q237W

α1β3F301Aγ2 GABAAR = α1β3F301Aγ2 GABAAR (Homo sapiens, UniProt P14867+P28472, F326A); format: cell-based
α5TMD Q245L = target: T6, α5TMD Q245L (Homo sapiens, UniProt P28472, A271S/A273P/A277V/D270E/DELINS289-473LSISARNSLPKVAYATAMDWFIAVCYAFVFSALIEFATVNYFTKSQPARAAKIDKMSRIVFPVLFGTFNLVYWATYLNREPVIKGAASPK/I247V/I257T/I267L/I280V/L248I/L256M/L278F/M252L/S254C/S272V/T258V/V276T/W262L/Y269R); assay: Thermostability binding experiment
T6 sequence (P28472 with tags, fused parts or gaps I247V/L248I/M252L/S254C/L256M/I257T/T258V/W262L/I267L/Y269R/D270E/A271S/S272V/A273P/V276T/A277V/L278F/I280V): T1 sequence (P28472+P31644 with tags, fused parts or gaps P31644:K256N/P31644:R347S/P31644:G348Q/P31644:W349P/P31644:DEL351-357/P31644:E358R/P31644:DEL363-425) with Q237L

[3] = target: T7, α5TMD T287K (chimeric GABAAR, β3 subunit ECD fused to α5 subunit TMD) (Homo sapiens, UniProt P28472, A271S/A273P/A277V/D270E/DELINS289-473[…]/I247V/I257T/I267L/I280V/L248I/L256M/L278F/M252L/S254C/S272V/T258V/V276T/W262Q/Y269R); format: cell-based; conditions: T287K background; n = 6
T7 sequence (P28472 with tags, fused parts or gaps I247V/L248I/M252L/S254C/L256M/I257T/T258V/W262Q/I267L/Y269R/D270E/A271S/S272V/A273P/V276T/A277V/L278F/I280V): T1 sequence (P28472+P31644 with tags, fused parts or gaps P31644:K256N/P31644:R347S/P31644:G348Q/P31644:W349P/P31644:DEL351-357/P31644:E358R/P31644:DEL363-425) with T279K

[4] = target: T8, α5TMD T287K (chimeric GABAAR, β3 subunit ECD fused to α5 subunit TMD) (Homo sapiens, UniProt P28472, A271S/A273P/A277V/D270E/DELINS289-473LSISARNSLPKVAYAKAMDWFIAVCYAFVFSALIEFATVNYFTKSQPARAAKIDKMSRIVFPVLFGTFNLVYWATYLNREPVIKGAASPK/I247V/I257T/I267L/I280V/L248I/L256M/L278F/M252L/S254C/S272V/T258V/V276T/W262Q/Y269R); format: cell-based; conditions: EC50 of potentiation of histamine EC10-15 responses, Fig. 1e; n = 6
T8 sequence (P28472 with tags, fused parts or gaps I247V/L248I/M252L/S254C/L256M/I257T/T258V/W262Q/I267L/Y269R/D270E/A271S/S272V/A273P/V276T/A277V/L278F/I280V): T1 sequence (P28472+P31644 with tags, fused parts or gaps P31644:K256N/P31644:R347S/P31644:G348Q/P31644:W349P/P31644:DEL351-357/P31644:E358R/P31644:DEL363-425) with T279K

GABAAR heteromers = conditions: cited from earlier work

Compound: picrotoxin
- effect on spontaneous inward leak current (α5TMD [1]; Fig. 1b): blocks a spontaneous inward leak current

Compound: CC(=O)[C@H]1CC[C@H]2[C@@H]3CC[C@@H]4C[C@H](O)CC[C@]4(C)[C@H]3CC[C@]12C [pregnanolone]
- EC50 (α5TMD T287K T309A): 2200 ± 300 nM
- potentiation of histamine EC10-15 responses (α5TMD T287K Q245L): ablated
- EC50 (α5TMD T287K W249L): > 10000 nM
- EC50 (α1β3γ2 GABAAR): 240 ± 20 nM
- EC50 (α1β3L297Aγ2 GABAAR): 2500 ± 200 nM
- loss of sensitivity to potentiation versus wild type (α1β3L297Aγ2 GABAAR): 10 fold
- EC50 (α5TMD [2]): 5500 ± 300 nM
- EC50 (α5TMD Q245W): > 30000 nM
- EC50 (α1β3F301Aγ2 GABAAR): 280 ± 40 nM
- EC50 (α5TMD Q245L): > 30000 nM
- potentiation of submaximal (EC10-15) histamine doses [3]: 325 ± 104%
- EC50 [4]: 1300 ± 100 nM

Compound: CC(=O)[C@H]1CC[C@H]2[C@@H]3CC[C@H]4C[C@H](O)CC[C@]4(C)[C@H]3CC[C@]12C [allopregnanolone]
- EC50 (α1β3γ2 GABAAR): 280 ± 40 nM
- EC50 (α1β3L297Aγ2 GABAAR): 1600 ± 200 nM
- loss of sensitivity to potentiation versus wild type (α1β3L297Aγ2 GABAAR): 5 fold
- EC50 (α1β3F301Aγ2 GABAAR): 260 ± 60 nM

Compound: NCCc1c[nH]cn1 [histamine]
- agonist effect on receptor current (α5TMD [1]; Fig. 1a): activated and then desensitised

Compound: CC(=O)[C@H]1CC[C@H]2[C@@H]3CC[C@@H]4C[C@@H](O)CC[C@]4(C)[C@H]3CC[C@]12C [epipregnanolone]
- potentiation of GABAAR heteromers (qualitative) (GABAAR heteromers): weak potentiator
